Measurements from patent US20230149432A1, “Human Milk Oligosaccharides for Improving Resistance of Organism Against Staphylococcus Aureus Infection” (Inner Mongolia Yili Industrial Group Co., Ltd., priority 2020, published 2023).

What was measured:
[1] = system: Staphylococcus aureus ATCC25923; test: Nematode infection model and lifespan assay (survival of C. elegans infected by Staphylococcus aureus); type: in vivo, Caenorhabditis elegans; conditions: for dose-effect relationship of protection of nematode survival: doses up to 30 mg/mL
Experimental: Human milk oligosaccharide solutions were prepared with distilled water and incubated in Petri dishes containing a nematode growth medium at different final concentrations (1, 10, and 30 mg/mL, respectively). To better determine the range of the ideal concentration, a preliminary screening on the dose-effect relationship of 2′-FL was first performed, and the 2′-FL concentrations used were 0.001, 0.01, 0.1, 1 and 10 mg/mL. For the HMO compositions, included were a test concentration of 8 mg/mL and a 15 mg/mL, respectively, after the addition into the nematode growth medium.
Age-consistent nematodes were obtained and cultured in Petri dishes containing nematode agar media (nematode media containing E. coli OP50 as food) with different doses of HMO (1, 8, 10, 15, 30 mg/mL) for co-culture. After the nematodes came into adulthood, they were transferred to petri dishes inoculated with Staphylococcus aureus ATCC25923 (supplemented at approximately 10^8 to 10^9CFU/mL) to simulate the condition of infection by Staphylococcus aureus. The intervening substances (HMO) added in the infection stage of each group were the same as those in the culture stage. Two controls were used, one without the pathogen (C. elegans dish containing E. coli OP50) and one with Staphylococcus aureus infection without any intervention (dish with Staphylococcus aureus only). In addition, a group in which an intervening substance was added in the culture phase and no intervention in the infection phase, and a group in which the intervention substance was not added in the cultivation phase but added in the infection phase were set up.
Several days into the culture of the nematodes, their survival rate was counted on a daily basis. […] Two independent assays were carried out for each condition (that is, unless otherwise specified, the experimental data in the examples were the results of two independent experiments).
Statistical comparative analysis of survival curves was performed, and log rank survival significance analysis was performed using the GraphPad Prism 4 or GraphPad Prism 9 statistical software package. One-way ANOVA was used to analyze for significant differences in survival rates among the groups on the third or fifth day of infection. For the comparison of the groups, an asterisk*represents the degree of the significant difference, with ****indicating P<0.0001, and ***indicating P<0.001. NS means not significant.

[2] = system: Staphylococcus aureus ATCC25923; test: Disc diffusion bacteriostatic zone experiment; type: cell-based; conditions: positive control, 200 μg/mL; 37° C., 18 hours
Experimental: In order to determine whether the tested materials themselves have an antibacterial effect, a bacteriostatic zone experiment for disk diffusion was carried out. Discs were prepared with sterile filter paper impregnated with the tested HMO materials (10 mg/mL, 30 mg/mL), and the discs were dried overnight under sterile conditions. Staphylococcus aureus ATCC25923 (1.0×10^6CFU/mL) was spread evenly on the surface of a NGM agar plate, and then the discs were placed on the surface of the inoculated agar plate petri dish. Gentamicin (200 μg/mL) was used as a positive control. All dishes were incubated at 37° C. for 18 hours.
In order to investigate whether the protective effects of individual HMOs or their compositions against Staphylococcus aureus infection, as presented in previous tests, were derived from direct bactericidal or bacteriostatic function, a test was carried out in which the test material was incubated with the bacteria population and observed whether an bacteriostatic zone of was formed. As shown in the figure, at two different concentration (left: 10 mg/mL, right: 30 mg/mL), none of the human milk oligosaccharides alone formed a transparent annular bacteriostatic zone around the inoculation site. […]

[3] = 1 mg/mL, vs infected control without intervention
[4] = 10 mg/mL, vs infected control without intervention
[5] = 30 mg/mL, vs infected control without intervention

Compound	effect on nematode survival rate after Staphylococcus aureus infection [1, 3]	effect on nematode survival rate after Staphylococcus aureus infection [1, 4]	effect on nematode survival rate after Staphylococcus aureus infection [1, 5]	dose-effect relationship of protection of nematode survival [1]	formation of a transparent annular bacteriostatic zone [2]	survival rate of nematodes ([1]; under protection of 6′-SL, 10 or 30 mg/mL, infected for 3 days)	survival rate of nematodes compared with 2′-FL ([1]; infection for 3 days, 3-FL 10 mg/mL vs 2′-FL 30 mg/mL)	protection of nematodes compared with 2′-FL at the same dose ([1]; same dose, infection for 3 days)	effect on lifespan of nematodes after Staphylococcus aureus infection ([1]; 15 mg/mL)	effect on nematode survival rate after Staphylococcus aureus infection ([1]; 15 mg/mL, another batch of experiments)	effect on nematode survival rate after Staphylococcus aureus infection ([1]; doses at 1 mg/mL or less, survival curve vs infected control without intervention)
CC(=O)N[C@H]1[C@H](O[C@H]2[C@@H](O)[C@@H](CO)O[C@@H](O[C@H]3[C@H](O)[C@@H](O)C(O)O[C@@H]3CO)[C@@H]2O)O[C@H](CO)[C@@H](O)[C@@H]1O[C@@H]1O[C@H](CO)[C@H](O)[C@H](O)[C@H]1O (stereo partly shown) [LNT, Lacto-N-Tetraose]	not greatly improved	significantly improved	significantly improved	has a dose-effect relationship							
Gentamicin					showed a bacteriostatic effect						
CC(=O)N[C@H]1[C@H]([C@H](O)[C@H](O)CO)O[C@@](OC[C@H]2O[C@@H](O[C@H]3[C@H](O)[C@@H](O)[C@H](O)O[C@@H]3CO)[C@H](O)[C@@H](O)[C@H]2O)(C(=O)O)C[C@@H]1O [6′-SL, 6′-sialyllactose]	not greatly improved	significantly improved	significantly improved	has a dose-effect relationship		up to 75%					
3-fucosyllactose [Composition 3-FL]	no effect	better protective function (P<0.0001)	better protective function (P<0.0001)	greater protection shown at higher doses			the same effect was achieved with 3-FL at 10 mg/mL as that with 2′-FL at 30 mg/mL	more effective in protecting nematodes from Staphylococcus aureus infection than 2′-FL			
2′-fucosyllactose [2′-FL]		considerable increase in nematode survival rate which was significant (P<0.0001)	the protective effect was significantly increased, and the effect was significant (P<0.0001)	dose-dependent and optimal at 30 mg/mL					significantly prolongs the lifespan of nematodes	significantly improves the survival rate of nematodes	did not show any effects
CC(=O)N[C@H]1[C@H]([C@H](O)[C@H](O)CO)O[C@@](O[C@H]2[C@@H](O)[C@@H](CO)O[C@@H](O[C@H]3[C@H](O)[C@@H](O)C(O)O[C@@H]3CO)[C@@H]2O)(C(=O)O)C[C@@H]1O (stereo partly shown) [3′-SL, 3′-sialyllactose]	no significant effect was observed	no significant effect was observed	no significant effect was observed								
